Results from patent publication US20130280391A1, “ANTI-MICROBIAL WASH COMPOSITIONS INCLUDING CERAGENIN COMPOUNDS AND METHODS OF USE FOR TREATING NON-MEAT FOOD PRODUCTS” (BRIGHAM YOUNG UNIVERSITY, priority 2012, published 2013).

How the values were obtained:
[1] = tested on: Campylobacter bacteria; assay: Example 3: killing of Campylobacter inoculated on food product samples by dip in wash composition; format: cell-based; details: 30 second dip; for log reduction of Campylobacter: versus positive control
Method: (§1) Example 2 was performed to determine the effectiveness of an anti-microbial wash composition including a ceragenin compound in controlling growth of Salmonella bacteria by fighting off a Salmonella inoculation. Example 3 was similarly performed to determine the effectiveness of the wash composition in controlling growth of Campylobacter bacteria by fighting off a Campylobacter inoculation. Examples 2 and 3 simulate the effectiveness of the present anti-microbial wash compositions to kill Salmonella and Campylobacter on a food product where the food product has become contaminated with Salmonella bacteria or Campylobacter bacteria.
(§2) A total of 15 food product samples were used for these tests. The 15 samples were divided into five groups of three each. Three samples were left untreated to serve as a negative control in order to observe natural levels of bacteria present on the samples. The remaining 12 samples were then inoculated with 1 mL of Salmonella and 1 mL of Campylobacter. The samples were allowed to dry for 20 minutes in order for the bacteria to adhere to the surface of the food product samples. One group of three of the inoculated samples, designated the positive control, were then rinsed with a wash composition including no anti-microbial agent to determine the level of bacteria after inoculation.
(§3) Each sample was withdrawn after 30 seconds. […] Each sample was withdrawn after 30 seconds. The fifth group of three inoculated samples was dipped one by one into a comparative proprietary non-CSA wash composition. Each of the samples was then rinsed, and the rinsate was collected to determine the levels and types of bacteria from each group. […] In other words, there were no changes to color, texture, taste, or smell, as a result of application of the ceragenin wash compositions.
In other words, the treatment was effective in killing 93.7% of the Campylobacter bacteria. […] In other words, the treatment was effective in killing 80% of the Campylobacter bacteria.

[2] = tested on: Salmonella bacteria; assay: Example 2: killing of Salmonella inoculated on food product samples by dip in wash composition; format: cell-based; details: 30 second dip; for level of Salmonella bacteria in the rinsate: positive control nearly 10^3.5 CFUs/mL
Method: as §1, §2, §3
In other words, the wash composition including 500 ppm ceragenin compound killed 100% of Salmonella bacteria present.

[3] = 1000 ppm by weight aqueous wash

CCCCCCCCOC(=O)CC[C@@H](C)[C@H]1CC[C@H]2[C@@H]3[C@H](OC(=O)CCN)C[C@@H]4C[C@H](OC(=O)CCN)CC[C@]4(C)[C@H]3C[C@H](OC(=O)CCN)[C@]12C [CSA-44]
Campylobacter bacteria killed ([1]; 500 ppm by weight aqueous wash): 93.7%
log reduction of Campylobacter ([1]; 500 ppm by weight aqueous wash): 1.2 log
Campylobacter bacteria killed [1, 3]: 80%
log reduction of Campylobacter [1, 3]: 0.8 log
Salmonella bacteria killed ([2]; 500 ppm by weight aqueous wash): 100%
level of Salmonella bacteria in the rinsate ([2]; 500 ppm by weight aqueous wash): no detectable level of Salmonella bacteria
level of Salmonella bacteria in the rinsate [2, 3]: no detectable level of Salmonella bacteria
